Experimental findings from ChEMBL document CHEMBL1201862, “PubChem BioAssay data set” (2004) are described below.

By IC50 is commonly meant the concentration needed to halve the response being measured. Broadly, the AC50 is the concentration at which the activity in the assay is half-maximal. As a reminder, the EC50 is the concentration giving half of the maximal effect.

For test [1], the target named is Tumor necrosis factor (Homo sapiens, UniProt P01375). Briefly: analog potency on TNFa NF-kB signaling – cell-based, revised, SAR follow-up (AID 2337). Type of test: functional.
Tumor necrosis factor, sequence (P01375 whole entry, the tested form may be a part): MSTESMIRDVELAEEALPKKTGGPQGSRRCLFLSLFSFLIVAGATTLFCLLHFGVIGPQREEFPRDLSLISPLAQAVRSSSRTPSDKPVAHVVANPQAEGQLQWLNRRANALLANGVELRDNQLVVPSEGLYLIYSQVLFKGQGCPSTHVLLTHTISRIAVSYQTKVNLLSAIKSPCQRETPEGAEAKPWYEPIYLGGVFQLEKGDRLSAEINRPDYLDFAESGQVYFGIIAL
Test [2] has as its target T1, Nucleotide-binding oligomerization domain-containing protein 1 (Homo sapiens, UniProt Q9Y239).
T1 sequence (Q9Y239 whole entry): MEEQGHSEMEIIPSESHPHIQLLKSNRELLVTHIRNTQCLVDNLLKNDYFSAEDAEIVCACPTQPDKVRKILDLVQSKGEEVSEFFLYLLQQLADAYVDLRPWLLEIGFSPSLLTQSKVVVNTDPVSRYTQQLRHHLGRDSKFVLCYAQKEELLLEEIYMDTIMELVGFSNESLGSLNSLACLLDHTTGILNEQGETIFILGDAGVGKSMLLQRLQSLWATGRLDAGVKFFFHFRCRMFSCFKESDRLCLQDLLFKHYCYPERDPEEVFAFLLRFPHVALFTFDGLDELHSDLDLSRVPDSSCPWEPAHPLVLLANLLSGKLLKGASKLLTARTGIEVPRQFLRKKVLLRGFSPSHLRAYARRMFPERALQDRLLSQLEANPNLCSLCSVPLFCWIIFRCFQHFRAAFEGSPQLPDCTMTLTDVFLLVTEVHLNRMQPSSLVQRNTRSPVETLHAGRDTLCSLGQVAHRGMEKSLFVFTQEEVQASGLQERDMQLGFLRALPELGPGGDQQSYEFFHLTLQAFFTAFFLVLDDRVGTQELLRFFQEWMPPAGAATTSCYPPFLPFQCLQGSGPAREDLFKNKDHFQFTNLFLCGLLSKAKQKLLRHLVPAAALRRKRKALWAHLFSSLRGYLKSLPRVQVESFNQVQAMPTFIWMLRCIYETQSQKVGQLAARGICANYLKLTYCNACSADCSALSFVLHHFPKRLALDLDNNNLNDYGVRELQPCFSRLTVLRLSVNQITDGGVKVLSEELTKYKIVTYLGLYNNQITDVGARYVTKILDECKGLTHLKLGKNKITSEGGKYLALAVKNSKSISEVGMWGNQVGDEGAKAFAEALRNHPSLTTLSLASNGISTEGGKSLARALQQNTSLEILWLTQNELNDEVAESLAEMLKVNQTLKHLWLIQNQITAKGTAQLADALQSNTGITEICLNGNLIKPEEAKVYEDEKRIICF
Briefly: blockers of NOD1 pathway activity – revised, SAR follow-up (AID 2333). Type of test: functional.

The test system of test [3] is HEK293. Briefly: cells. The following applies: Homo sapiens.
Test [4] has as its target T2, CAAX prenyl protease 2 (Saccharomyces cerevisiae S288c, UniProt Q03530).
T2 sequence (Q03530 whole entry): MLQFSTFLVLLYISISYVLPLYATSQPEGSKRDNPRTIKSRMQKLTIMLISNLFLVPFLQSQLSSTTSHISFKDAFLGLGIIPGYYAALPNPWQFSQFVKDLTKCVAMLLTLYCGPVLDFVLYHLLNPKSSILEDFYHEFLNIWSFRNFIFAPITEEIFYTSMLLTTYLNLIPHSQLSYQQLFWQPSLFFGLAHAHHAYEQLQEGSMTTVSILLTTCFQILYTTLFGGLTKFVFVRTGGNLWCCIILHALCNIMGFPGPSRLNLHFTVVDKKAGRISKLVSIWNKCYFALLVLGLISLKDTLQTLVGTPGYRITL
Type of test: biochemical.

The target in test [5] is Troponin, cardiac muscle (Homo sapiens, UniProt P19429+P45379+P63316). Briefly: Fluorescence-based biochemical high throughput dose response assay for activators of the calcium sensitivity of cardiac Regulated Thin Filaments (RTF). [Related pubchem assays (depositor defined):AID493008, AID493018, AID504382, AID504383]. Type of test: protein-complex assay.
For test [6], the target named is T3, Streptokinase A (Streptococcus pyogenes serotype M1, UniProt P10520).
T3 sequence (P10520 whole entry): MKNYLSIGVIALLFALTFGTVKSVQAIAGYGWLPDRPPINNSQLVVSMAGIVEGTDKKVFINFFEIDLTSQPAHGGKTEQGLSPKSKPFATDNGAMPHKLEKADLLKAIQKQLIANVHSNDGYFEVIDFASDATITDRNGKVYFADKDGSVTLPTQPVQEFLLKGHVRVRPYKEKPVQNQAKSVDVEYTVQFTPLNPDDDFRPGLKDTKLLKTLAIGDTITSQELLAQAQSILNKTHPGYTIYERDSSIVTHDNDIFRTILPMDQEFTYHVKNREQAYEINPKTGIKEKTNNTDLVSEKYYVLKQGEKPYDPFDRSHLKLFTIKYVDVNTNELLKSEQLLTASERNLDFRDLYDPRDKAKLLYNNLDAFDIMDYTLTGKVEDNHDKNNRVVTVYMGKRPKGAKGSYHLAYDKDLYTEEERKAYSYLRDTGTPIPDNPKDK
The test is described as follows: viability-normalized secreted streptokinase activity reduction – plasminogen activation absorbance, OD405, dose response (AID 1914).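 Note: secreted streptokinase activity via plasminogen activation per viability signal from cell pellet.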 Type of test: functional, Streptococcus pyogenes M1 GAS.

For test [7], the target named is T4, CAAX prenyl protease 2 (Homo sapiens, UniProt Q9Y256).
T4 sequence (Q9Y256 whole entry): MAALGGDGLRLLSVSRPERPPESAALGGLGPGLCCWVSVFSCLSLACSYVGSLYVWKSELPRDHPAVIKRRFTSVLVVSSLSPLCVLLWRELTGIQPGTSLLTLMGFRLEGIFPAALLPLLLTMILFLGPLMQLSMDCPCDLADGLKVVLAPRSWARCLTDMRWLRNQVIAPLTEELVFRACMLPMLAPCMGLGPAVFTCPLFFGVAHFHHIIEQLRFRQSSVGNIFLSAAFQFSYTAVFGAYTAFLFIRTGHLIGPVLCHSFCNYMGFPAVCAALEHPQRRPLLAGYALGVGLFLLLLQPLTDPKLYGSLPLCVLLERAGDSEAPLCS
The test is described as follows: inhibition of Ras-converting CAAX protease Rce1 – biochemical, yeast membranes, quenched-peptide fluorescence, cherry-pick, dose response (AID 588849).

Test [8] concerns Streptococcus sp. 'group A'. The test is described as follows: Streptococcus pyogenes SK(-)GAS viability under kanamycin – luminescence, BacTiterGlo, confirmation, counter-screen for streptokinase expression inhibitor project, dose response (AID 1900). Type of test: functional, organism-based.
Test [9] concerns Streptococcus. The test is described as follows: GAS UMAA2166 growth inhibition – luminescence, BacTiterGlo, counter-screen for streptokinase expression inhibitor project, dose response (AID 1915).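 Note: potency for reduction of bacterial viability or growth.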 Type of test: functional, organism-based. Background: Counterscreens check selectivity or assay interference.
The target in test [10] is T5, Short transient receptor potential channel 4 (Mus musculus, UniProt Q9QUQ5).
T5 sequence (Q9QUQ5 whole entry): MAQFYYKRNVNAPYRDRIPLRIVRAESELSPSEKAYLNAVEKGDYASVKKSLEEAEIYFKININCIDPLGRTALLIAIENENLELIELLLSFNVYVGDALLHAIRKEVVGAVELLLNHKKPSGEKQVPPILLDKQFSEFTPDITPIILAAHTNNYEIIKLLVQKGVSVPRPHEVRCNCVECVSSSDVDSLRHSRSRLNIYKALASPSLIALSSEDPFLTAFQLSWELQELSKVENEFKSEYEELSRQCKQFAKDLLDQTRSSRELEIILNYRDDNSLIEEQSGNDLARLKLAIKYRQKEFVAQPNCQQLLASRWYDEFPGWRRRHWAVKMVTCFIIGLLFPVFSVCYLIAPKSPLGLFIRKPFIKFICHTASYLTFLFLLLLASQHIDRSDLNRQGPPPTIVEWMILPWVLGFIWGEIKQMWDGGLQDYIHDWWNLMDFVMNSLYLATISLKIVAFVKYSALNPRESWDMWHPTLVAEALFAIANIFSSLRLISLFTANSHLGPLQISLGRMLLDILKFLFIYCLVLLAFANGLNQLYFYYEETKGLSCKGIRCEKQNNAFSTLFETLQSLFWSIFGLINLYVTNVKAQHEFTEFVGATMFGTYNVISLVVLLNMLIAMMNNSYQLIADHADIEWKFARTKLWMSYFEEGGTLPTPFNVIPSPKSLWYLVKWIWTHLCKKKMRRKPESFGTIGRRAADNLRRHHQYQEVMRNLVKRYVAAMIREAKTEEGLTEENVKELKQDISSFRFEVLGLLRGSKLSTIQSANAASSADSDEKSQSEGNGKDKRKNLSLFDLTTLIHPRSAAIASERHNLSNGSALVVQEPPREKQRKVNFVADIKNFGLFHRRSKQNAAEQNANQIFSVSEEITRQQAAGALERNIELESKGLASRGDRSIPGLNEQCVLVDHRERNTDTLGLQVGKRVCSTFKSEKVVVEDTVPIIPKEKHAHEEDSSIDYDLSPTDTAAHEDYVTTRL
The test is described as follows: calcium entry via TRPC4 opening agents – cell-based, HEK293 TRPC4/mu-opioid, Fluo-4 calcium, dose response (AID 434937). Type of test: functional.

The target of test [11] is T5, Short transient receptor potential channel 4. The test is described as follows: block of DAMGO-driven TRPC4 calcium entry – cell-based, HEK293 TRPC4/mu-opioid, Fluo-4 calcium, dose response (AID 434942).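 Note: potency of inhibitors blocking the TRPC4 calcium response.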 Type of test: functional.
The subject of test [12] is HEK293. The test is described as follows: cells. Type of test: functional, cell-based. The note with it: Homo sapiens.
Test [13] has as its system INS1. Briefly: INS-1E survival protection against cytokine death – cell-based, luminescence, retest, dose response (AID 449756).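 Note: cell death triggered by IL-1 beta plus TNF-alpha plus IFN-gamma mixture; protective hits raise ATP signal compared with cytokine alone wells.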 Type of test: functional. The following applies: Rattus norvegicus.
The nature of test [14]: HEK-293T cell viability reduction – luminescence, B-cell screen hits, cytotoxicity control for BCR NF-kB inhibitor project, dose response (AID 489021).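 Note: HEK-293T cells carrying an NF-kB luciferase reporter; cells exposed to compound for about 14 hours before viability readout.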 The format is functional, cell-based.
The subject of test [15] is HEK293. The test is described as follows: inhibition of NOD1-driven NF-kB reporter – cell-based, luminescence, uHTS, primary screen (AID 1578). The following applies: Homo sapiens. Type of test: functional.
Test [16] relates to HEK293. The test is described as follows: NOD2 signaling inhibitors in MDP-stimulated cells, cell-based, uHTS, luminescence (AID 2001). Type of test: functional. The following applies: Homo sapiens.
The subject of test [17] is HEK293. Briefly: cells. Type of test: functional, cell-based. The following applies: Homo sapiens. This is another data set of the same source.
Test [18] addresses T6, COUP transcription factor 2 (Homo sapiens, UniProt P24468).
T6 sequence (P24468 whole entry): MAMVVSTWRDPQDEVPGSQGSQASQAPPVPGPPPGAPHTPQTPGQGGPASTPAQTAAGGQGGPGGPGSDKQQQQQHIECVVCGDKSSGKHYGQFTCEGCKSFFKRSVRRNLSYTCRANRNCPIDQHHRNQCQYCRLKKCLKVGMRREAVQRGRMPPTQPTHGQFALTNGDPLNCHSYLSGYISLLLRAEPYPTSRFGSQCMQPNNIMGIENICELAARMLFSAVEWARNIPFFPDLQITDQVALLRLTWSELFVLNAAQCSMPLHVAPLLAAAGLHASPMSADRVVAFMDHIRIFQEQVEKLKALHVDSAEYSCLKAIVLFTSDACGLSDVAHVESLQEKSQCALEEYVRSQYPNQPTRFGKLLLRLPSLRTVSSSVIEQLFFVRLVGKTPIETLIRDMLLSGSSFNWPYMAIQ
The test is described as follows: Luminescence-based cell-based high throughput dose response assay to identify inhibitors of COUP-TFII (NR2F2). Type of test: functional.

The source made the active and inactive calls. A value given as a limit tells only on which side of the number the result lay.

For the compound `COc1ccc(-c2nc(CN3CCN(c4ncnc5ccccc45)CC3)c(C)o2)cc1`, the IC50 in test [1] is 4.08 µM (active); in test [2] it was 3.13 µM (active); in test [3], 11.9 µM (active).
`COc1ccc(-n2nc(C(=O)NCC(=O)N3CCC(C)CC3)c3ccccc3c2=O)cc1`: the AC50 in test [4] was 3.87 µM (active).
Still for that read-out and setting: under `C=C(C)CSc1nc2sc3c(c2c(=O)n1-c1ccc(OC)cc1)CCN(C)C3` stands 3.45 µM (active).
As to `Cn1cnnc1Sc1nc2ccccc2nc1NS(=O)(=O)c1ccccc1`, in test [5], the EC50 is > 71.5 µM (inactive).
On to `COc1ccc(-c2oc3ncn(Cc4ccco4)c(=N)c3c2-c2ccc(OC)cc2)cc1`, for which the figures for the EC50 in test [6], in [8] and in test [9] were 14.8 µM (active), 6.01 µM (active) and > 150 µM (not active), respectively. In test [7], the AC50 is 79.2 µM (active).
Take `O=C(NC(=S)NNC(=O)c1ccco1)c1ccc(Br)cc1`: the EC50 is 5.96 µM (active) in test [10], 1.03 µM (active) in test [8], 2.16 µM (active) in [9] and 13.3 µM (active) in test [11].
With `CCOc1ccc(-c2nc(CCl)cs2)cc1OC`, the AC50 in test [7] is > 100 µM (inactive).
Turning to `Cc1cccn2c(=O)c(/C=C3\SC(=S)N(CC(C)C)C3=O)c(NCCCOC(C)C)nc12`, the EC50 in [5] is 0.287 µM (active).
Regarding `COc1ccc(NS(=O)(=O)c2ccc(-c3coc(C)n3)cc2)cc1OC`, the IC50 in test [12] is > 20 µM (inactive); in test [14], > 80 µM (inactive); in test [16], 6.82 µM (active); in test [17] it was 4.75 µM (active); in test [18], 5.85 µM (active). The AC50 in [13] is 2.88 µM (active). Also, in test [15], the EC50 is 1.1 µM (active).
As to `CCC(=O)N1c2ccc(S(=O)(=O)N3CCN(c4ccc(C(C)=O)cc4)CC3)cc2CC1C` (stereo not drawn), the IC50 was 1.63 µM (active) in test [1], 2 µM (active) in test [2] and 14.7 µM (active) in test [3].
As for `CS(=O)(=O)Cc1ccc(C(=O)N(CCc2ccccc2)Cc2ccccc2)cc1`, the AC50 in [7] was 35.8 µM (active).
Turning to `Cc1ccc(C)c(C(=O)CSc2nnc(C(C)C)[nH]2)c1`, the EC50 in test [5] is > 71.5 µM (inactive).
